Measurements taken from patent publication US6645982B2, “Crystal forms of 6-[(4-chloro-phenyl)-hydroxy-(3-methyl-3H-imidazol-4-yl)-methyl]-4-(3-ethynyl-phenyl)-1-methyl-1H-quinolin-2-one, 2,3-dihydroxybutanedioate salts and method of production” (Pfizer Inc, priority 2000, dated 2003).

Assay: solubility in gastric fluids
Type: physicochemical
Conditions: compared to other salts of the compound of formula I, i.e., HCl

solubility in gastric fluids: improved solubility
Compound: C#Cc1cccc(-c2cc(=O)n(C)c3ccc(C(O)(c4ccc(Cl)cc4)c4cncn4C)cc23)c1.O=C(O)C(O)C(O)C(=O)O (stereo not shown) [6-[(4-chloro-phenyl)-hydroxy-(3-methyl-3H-imidazol-4-yl)-methyl]-4-(3-ethynyl-phenyl)-1-methyl-1H-quinolin-2-one, 2,3-dihydroxybutanedioate (1:1)]
